Consider 7 molecules from US11267809B2, “BAF complex modulating compounds and methods of using the same” (THE BOARD OF TRUSTEES OF THE LELAND STANFORD JUNIOR …, priority 2017, dated 2022).

Assay [1] has as its system HCT116 cells. Kind of assay: Synergy viability assay (CellTitre blue, 5 days), HCT116 ARID1A(+/+). It is filed as cell-based, human. Particulars: for average combination index (CI) of putative inhibitor: with VE-821 (1-30 uM) and putative inhibitor (1-30 uM); for average combination index (CI) of putative inhibitor / average combination index (CI) of TOP2 inhibitor / IC50: 5 days; for average combination index (CI) of TOP2 inhibitor: with VE-821, ARID1A(+/+); for IC50: Homo sapiens, HCT-116, 120 h, read-out: VE-821 IC50 in combination with BAFi. The protocol: To assess drug synergy, the Chou-Talalay method was employed to provide a mechanism-independent method to quantify the synergism of drug interactions. This method combines elements of the Scatchard, Michaelis-menten, Hill, and Henderson-Hasslebalch equations through the law of mass-action^31,32 to generate a quantifiable assessment of synergy. Molecules were tested both independently and then in 25 different combinations in HCT116 cells for 5 days as described above. To determine a combination index (CI), median-effect equations of the two respective molecules were determined from their respective dose responses. The median-effect equation was used to calculate a median-effect dose, and (Dx)ATRi,BAFi values which correspond for the respective doses of the BAFi and ATRi compounds and correlate with a given percentage of cells affected by the individual treatments. Normalized index values (IATRi, IBAFi), and the combination index are a ratio between the treatment dose, and the Dx for a given fraction of affected cells. Combination indices less than 0.9 are considered synergistic, while values ranging from 0.9 to 1.1 are additive, and CIs above 1.1 are antagonistic.
(§1) Viability assays were performed in 384-well plates. Cells were plated at 500 cells/well. Each drug was administered in 5-doses with 4 replicates per plate, and each 5×5 drug combination was administered with 8 replicates per plate, 24 hours after seeding. All error bars represent 4 or 8 technical replicates averaged over 3 independent experiments. Media containing fresh drug was replaced every 48 hours. After 5 days, cellular viability was measured using CellTitre blue, as described by the manufacturer.

Assay [2] relates to HCT116 (ARID1A−/−) cell line. The assay is described as follows: Synergy viability assay, HCT116 ARID1A(-/-). The assay is classed as cell-based, human. Particulars: for average combination index (CI) of TOP2 inhibitor: with VE-821, ARID1A(−/−), 5 days.
Excerpt: (§2) SMARCA4, the primary target of our original screen, is present in both human BAF and PBAF complexes in cancer^12. PBAF complexes differ from BAF complexes by incorporation of specific subunits. Specifically, PBAF complexes contain ARID2 (as opposed to ARID1A/B), PHF10 (BAF45a) (as opposed to […] (BAF45d)), PBRM1, and lack the BAF-specific subunit SS18. PBAF specific subunits are also frequently mutated in cancer, specifically renal clear cell carcinomas and cholangiocarcinomas^33-36. To assess whether the lead compound is targeting BAF, PBAF complexes, or both, we constitutively knocked down ARID1A or ARID2 by lentiviral transduction of HCT116 cells and compared the BAFi/ATRi synergy to the wild-type (ARID1A+/+).
Isogenic HCT116 ARID1A(+/+) and ARID1A(−/−) cell lines were originally obtained from Horizon Discovery. MCF-7, Cal-51, A-704, and MDA-MB-436, MDA-MB-468, HCC1143, HCC1187, HCC1954, and ACHN cell lines were obtained from American Type […]. All cell lines were grown in McCoy's 5a Media supplemented with 10% FBS.
as §1

Assay [3] has as its system HCT116 cells, ARID1A deleted. Particulars: HCT116 cells upon deletion of ARID1A, 5 days of treatment; read-out: IC50 of VE-821; cited from earlier work.
Assay [4] deals with HCT116 cells infected with shRNA lentivirus targeting ARID1A. The assay is described as follows: Synergy viability assay, HCT116 with shARID1A knockdown. The assay is classed as cell-based, human. The following applies: single agent, 5 continuous days.
Excerpt: as §2, with “(ARID1A+/+). […] Further, upon knockdown of ARID1A or ARID2 (FIG. 3b), the synergistic effect observed between Baficillin1 and VE-821 was ablated upon loss of ARID1A (FIG. 3e) (CIshARID1A=1.48±0.14), but not loss of shARID2 (CIshARID2=0.42±0.04) (FIG. 3c-e).” for “(ARID1A+/+).”
as §1
Lentiviruses were produced in Lenti-X 293T cells (Clonetech) via spinfection with polyethylenimine transfection. 293T-x cells were transfected with PEI (Polysciences Inc., 24765) with lentiviral PLKO shARID1A or GIPZ shARID2 knockdown vectors, co-transfected with packaging vectors pspax2 and pMD2.G as previously described^49. PLKO shRNA construct targeting ARID1A (TRCN0000059090: shRNA-2) was obtained^50 and GIPZ Human ARID2 shRNA was purchased from Dharmacon (CloneId:V2LHS_74399). […]

The subject of assay [5] is HCT116 cells. Particulars: 5 days of treatment, before ARID1A deletion, read-out: IC50 of VE-821; cited from earlier work.

Where two headings read alike, the source gives them in different places.

With `CCc1nc(N)nc(N)c1-c1ccc(Cl)cc1` [Chloroidine, Pyrimethamine], the “average combination index (CI) of putative inhibitor” value with HCT116 cells [1] amounted to 1.3±0.18.
In the case of `COc1cccc2c1C(=O)c1c(O)c3c(c(O)c1C2=O)C[C@@](O)(C(=O)CO)C[C@@H]3O[C@H]1C[C@H](N)[C@H](O)[C@H](C)O1` [Doxorubicin], the “average combination index (CI) of TOP2 inhibitor” value in assay [2] worked out at 0.95±0.06; in the assay on HCT116 cells [1] it was 0.87±0.07.
For the molecule `COc1ccc2c(C)nc(Nc3nc(C)c(C)c(=O)[nH]3)nc2c1` [Madrasin], the “average combination index (CI) of putative inhibitor” value in the assay with HCT116 cells [1] turned out to be 1.4±0.04.
Consider `O=C(/C=C/N1C[C@H]2C[C@@H]1CN2c1ccccn1)c1ccccc1O` [PFI-3], for which the “individual dose-response or synergy with VE-821” value in assay [2] (ARID1A(−/−) condition) was “no measurable individual dose-response or synergy effects”; in the assay on HCT116 cells [1] (ARID1A(+/+) condition, as treated in FIG. 4c) it was “no measurable individual dose-response or synergy effects”.
Broadly, the IC50 is the concentration needed to halve the response being measured. Regarding `CS(=O)(=O)c1ccc(-c2cnc(N)c(C(=O)Nc3ccccc3)n2)cc1` [VE-821], the IC50 in assay [3] is around 1000 nM; in the assay with HCT116 cells [5], around 10000 nM; with HCT116 cells [1] (highest dose of BAFi (Baficillin1) tested in combination), around 1000 nM; with HCT116 cells [1] (lowest dose of BAFi (Baficillin1) 1.25 uM), around 4000 nM. Moreover, the “sensitivity (cell survival) compared to wild-type HCT116” value in assay [4] is “increased sensitivity”; in assay [2] (single agent, 5 continuous days), “increased sensitivity”.
With `CC(Oc1ccc(Oc2cnc3ccc(Cl)cc3n2)cc1)C(=O)O` (stereo not shown) [XK469], the results for the “average combination index (CI) of TOP2 inhibitor” value (in assay [2]; in the assay with HCT116 cells [1]) were 0.85±0.09 and 0.75±0.05, respectively.
For ICRF-193 the same measures were 0.82±0.08 and 1.0±0.05.
